Measurements published in patent publication US20240158446A1, “CYCLIC COMPOUND HAVING SELECTIVE INHIBITORY ACTION ON KRAS OVER HRAS AND NRAS” (CHUGAI SEIYAKU KABUSHIKI KAISHA, priority 2021, published 2024).

Experiments:
[1] = biological target: GDP-bound HRAS wild-type protein (Homo sapiens, UniProt P01112); experiment: Binding to HRAS by surface plasmon resonance (SPR), Single Cycle Kinetics; conditions: SPR; GDP-bound HRAS wild-type protein vs GDP-bound KRAS wild-type protein; KD ratio class
GDP-bound HRAS wild-type protein, sequence (P01112 whole entry): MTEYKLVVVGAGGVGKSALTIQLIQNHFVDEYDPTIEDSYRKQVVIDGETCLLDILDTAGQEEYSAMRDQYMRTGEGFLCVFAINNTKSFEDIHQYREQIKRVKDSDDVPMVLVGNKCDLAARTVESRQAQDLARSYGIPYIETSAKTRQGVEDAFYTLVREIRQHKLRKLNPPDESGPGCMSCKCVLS

[2] = test system: human lung cancer strain NCI-H441;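 note: cell proliferation inhibition after four days measured by CellTiter-Glo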
[3] = biological target: GDP-bound KRAS wild-type protein (Homo sapiens, UniProt P01116); experiment: Binding to KRAS by surface plasmon resonance (SPR), Single Cycle Kinetics; conditions: SPR, Single Cycle Kinetics, 1:1 binding model; GDP-bound KRAS wild-type protein; read-out: KRAS KD
GDP-bound KRAS wild-type protein, sequence (P01116 whole entry): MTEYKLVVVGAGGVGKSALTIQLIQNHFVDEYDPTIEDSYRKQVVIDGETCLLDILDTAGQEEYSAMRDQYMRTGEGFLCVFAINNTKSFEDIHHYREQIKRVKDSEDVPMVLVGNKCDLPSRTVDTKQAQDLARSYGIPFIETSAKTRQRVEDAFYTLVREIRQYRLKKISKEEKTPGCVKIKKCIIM

[4] = biological target: GDP-bound NRAS wild-type protein (Homo sapiens, UniProt P01111); experiment: Binding to NRAS by surface plasmon resonance (SPR), Single Cycle Kinetics; conditions: SPR; GDP-bound NRAS wild-type protein vs GDP-bound KRAS wild-type protein; KD ratio class
GDP-bound NRAS wild-type protein, sequence (P01111 whole entry): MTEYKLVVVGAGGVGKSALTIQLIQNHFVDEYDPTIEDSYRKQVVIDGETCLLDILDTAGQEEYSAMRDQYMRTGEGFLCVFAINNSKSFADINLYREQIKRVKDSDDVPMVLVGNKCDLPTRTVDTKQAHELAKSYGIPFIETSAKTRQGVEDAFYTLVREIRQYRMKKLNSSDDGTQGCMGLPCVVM

Row | SMILES | HRAS/KRAS (ratio of KD value for HRAS to KD value for KRAS) [1] | IC50 [2] [nM] | Kd [3] [nM] | NRAS/KRAS (ratio of KD value for NRAS to KD value for KRAS) [4]
1 | CCOC[C@H]1C(=O)N[C@@H]([C@@H](C)CC)C(=O)N(C)CC(=O)N(C)[C@H]2C/C=C\CCN(C2=O)[C@@H](Cc2ccc(C(F)(F)F)cc2)C(=O)N(C)CC(=O)N[C@@H](CCc2cc(F)c(C(F)(F)F)c(F)c2)C(=O)N2C[C@H](OCC)C[C@H]2C(=O)NC2(CCC2)C(=O)N(C)[C@@H](C2CCCC2)C(=O)N(C)[C@H](C(=O)N(C)C)CC(=O)N1C [PP1266, (2S,8S,12R,14S,20S,23S,27S,30S,36S,38Z)-20-cyclopentyl-8-[2-[3,5-difluoro-4-(trifluoromethyl)phenyl]ethyl]-12-ethoxy-27-(ethoxymethyl)-N,N,4,19,22,26,32,35-octamethyl-30-[(1S)-1-methylpropyl]-3,6,9,15,18,21,25,28,31,34,42-undecaoxo-2-[[4-(trifluoromethyl)phenyl]methyl]spiro[1,4,7,10,16,19,22,26,29,32,35-undecazatricyclo[34.5.1.0^10,14]dotetracont-38-ene-17,1′-cyclobutane]-23-carboxamide] | A (a compound having 10 or more and less than 20 is denoted as A) | 12.2 | 0.045 | A (a compound having 10 or more and less than 20 is denoted as A)
2 | CCO[C@@H]1C[C@H]2C(=O)NC3(CCC3)C(=O)N(C)[C@@H](C3CCCC3)C(=O)N(C)[C@H](C(=O)N(C)C)CC(=O)N(C)[C@@H](COCC(F)(F)F)C(=O)N[C@@H]([C@@H](C)CC)C(=O)N(C)CC(=O)N(C)[C@H]3C/C=C\CCN(C3=O)[C@@H](Cc3ccc(C(F)(F)F)cc3)C(=O)N(C)CC(=O)N[C@@H](CCc3cc(F)c(C(F)(F)F)c(F)c3)C(=O)N2C1 [PP1267] | A (a compound having 10 or more and less than 20 is denoted as A) | 10.8 | 0.046 | A (a compound having 10 or more and less than 20 is denoted as A)
3 | CCO[C@@H]1C[C@H]2C(=O)NC3(CCC3)C(=O)N(C)[C@@H](C3CCCC3)C(=O)N(C)[C@H](C(=O)N(C)C)CC(=O)N(C)[C@@H](COC3CC3)C(=O)N[C@@H]([C@@H](C)CC)C(=O)N(C)CC(=O)N(C)[C@H]3C/C=C\CCN(C3=O)[C@@H](Cc3ccc(C(F)(F)F)cc3)C(=O)N(C)CC(=O)N[C@@H](CCc3cc(F)c(C(F)(F)F)c(F)c3)C(=O)N2C1 [PP1268, (2S,8S,12R,14S,20S,23S,27S,30S,36S,38Z)-20-cyclopentyl-27-(cyclopropoxymethyl)-8-[2-[3,5-difluoro-4-(trifluoromethyl)phenyl]ethyl]-12-ethoxy-N,N,4,19,22,26,32,35-octamethyl-30-[(1S)-1-methylpropyl]-3,6,9,15,18,21,25,28,31,34,42-undecaoxo-2-[[4-(trifluoromethyl)phenyl]methyl]spiro[1,4,7,10,16,19,22,26,29,32,35-undecazatricyclo[34.5.1.0^10,14]dotetracont-38-ene-17,1′-cyclobutane]-23-carboxamide] | A (a compound having 10 or more and less than 20 is denoted as A) | 12.1 | 0.045 | A (a compound having 10 or more and less than 20 is denoted as A)
4 | CCO[C@@H]1C[C@H]2C(=O)NC3(CCC3)C(=O)N(C)[C@@H](C3CCCC3)C(=O)N(C)[C@H](C(=O)N(C)C)CC(=O)N(C)[C@@H](CC)C(=O)N[C@@H](C3CCC3)C(=O)N(C)CC(=O)N(C)[C@H]3C/C=C\CCN(C3=O)[C@@H](Cc3ccc(C(F)(F)F)cc3)C(=O)N(C)CC(=O)N[C@@H](CCc3cc(F)c(C(F)(F)F)c(F)c3)C(=O)N2C1 [PP1269, (2S,8S,12R,14S,20S,23S,27S,30S,36S,38Z)-30-cyclobutyl-20-cyclopentyl-8-[2-[3,5-difluoro-4-(trifluoromethyl)phenyl]ethyl]-12-ethoxy-27-ethyl-N,N,4,19,22,26,32,35-octamethyl-3,6,9,15,18,21,25,28,31,34,42-undecaoxo-2-[[4-(trifluoromethyl)phenyl]methyl]spiro[1,4,7,10,16,19,22,26,29,32,35-undecazatricyclo[34.5.1.0^10,14]dotetracont-38-ene-17,1′-cyclobutane]-23-carboxamide] | B (a compound having 3 or more and less than 10 is denoted as B) | 29 | 0.091 | A (a compound having 10 or more and less than 20 is denoted as A)
5 | CCO[C@@H]1C[C@H]2C(=O)NC3(CCC3)C(=O)N(C)[C@@H](C3CCCC3)C(=O)N(C)[C@H](C(=O)N(C)C)CC(=O)N(C)[C@@H](CC)C(=O)N[C@@H](C(C)C)C(=O)N(C)CC(=O)N(C)[C@H]3C/C=C\CCN(C3=O)[C@@H](Cc3ccc(C(F)(F)F)cc3)C(=O)N(C)CC(=O)N[C@@H](CCc3cc(F)c(C(F)(F)F)c(F)c3)C(=O)N2C1 [PP1270] | B (a compound having 3 or more and less than 10 is denoted as B) | 53.5 | 0.13 | A (a compound having 10 or more and less than 20 is denoted as A)
6 | CC[C@H](C)[C@@H]1NC(=O)[C@H](C)N(C)C(=O)C[C@@H](C(=O)N(C)C)N(C)C(=O)[C@H](C2CCCC2)N(C)C(=O)C2(CCC2)NC(=O)[C@@H]2CCCN2C(=O)[C@H](CCc2cc(F)c(C(F)(F)F)c(F)c2)NC(=O)CN(C)C(=O)[C@H](Cc2ccc(C(F)(F)F)cc2)N2CC/C=C\C[C@@H](C2=O)N(C)C(=O)CN(C)C1=O [PP1271, (2S,8S,14S,20S,23S,27S,30S,36S,38Z)-20-cyclopentyl-8-[2-[3,5-difluoro-4-(trifluoromethyl)phenyl]ethyl]-N,N,4,19,22,26,27,32,35-nonamethyl-30-[(1S)-1-methylpropyl]-3,6,9,15,18,21,25,28,31,34,42-undecaoxo-2-[[4-(trifluoromethyl)phenyl]methyl]spiro[1,4,7,10,16,19,22,26,29,32,35-undecazatricyclo[34.5.1.0^10,14]dotetracont-38-ene-17,1′-cyclobutane]-23-carboxamide] | A (a compound having 10 or more and less than 20 is denoted as A) | 90.7 | 0.054 | AA (a compound having 20 or more is denoted as AA)
7 | CC[C@H](C)[C@@H]1NC(=O)[C@H](CC(C)C)N(C)C(=O)C[C@@H](C(=O)N(C)C)N(C)C(=O)[C@H](C2CCCC2)N(C)C(=O)C2(CCC2)NC(=O)[C@@H]2CCCN2C(=O)[C@H](CCc2cc(F)c(C(F)(F)F)c(F)c2)NC(=O)CN(C)C(=O)[C@H](Cc2ccc(C(F)(F)F)cc2)N2CC/C=C\C[C@@H](C2=O)N(C)C(=O)CN(C)C1=O [PP1272, (2S,8S,14S,20S,23S,27S,30S,36S,38Z)-20-cyclopentyl-8-[2-[3,5-difluoro-4-(trifluoromethyl)phenyl]ethyl]-27-isobutyl-N,N,4,19,22,26,32,35-octamethyl-30-[(1S)-1-methylpropyl]-3,6,9,15,18,21,25,28,31,34,42-undecaoxo-2-[[4-(trifluoromethyl)phenyl]methyl]spiro[1,4,7,10,16,19,22,26,29,32,35-undecazatricyclo[34.5.1.0^10,14]dotetracont-38-ene-17,1′-cyclobutane]-23-carboxamide] | A (a compound having 10 or more and less than 20 is denoted as A) | 24 | 0.11 | A (a compound having 10 or more and less than 20 is denoted as A)
